Experimental findings from paper PMC12535377, “Synaptic and intrinsic plasticity mediated by CCK-type signaling coordinates behavioral changes during motivational state shifts” (Cell reports, 2025) are described below.

One assay concerns the target T1, apCCKR2 (Aplysia californica, UniProt A0ABM0ZX06).
T1 sequence (A0ABM0ZX06 1-377): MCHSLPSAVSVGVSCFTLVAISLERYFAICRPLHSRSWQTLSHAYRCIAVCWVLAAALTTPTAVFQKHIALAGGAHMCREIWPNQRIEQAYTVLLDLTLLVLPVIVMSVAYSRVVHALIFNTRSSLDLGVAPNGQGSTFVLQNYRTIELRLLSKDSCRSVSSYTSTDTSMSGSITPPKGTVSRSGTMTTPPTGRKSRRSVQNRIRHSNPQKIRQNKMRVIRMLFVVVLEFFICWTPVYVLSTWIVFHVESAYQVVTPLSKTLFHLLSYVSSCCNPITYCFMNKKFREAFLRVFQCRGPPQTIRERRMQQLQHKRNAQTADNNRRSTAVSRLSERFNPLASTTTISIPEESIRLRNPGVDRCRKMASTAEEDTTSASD
Description: IP1 accumulation assay, apCCKR2 in CHO-K1 cells. The settings on record: CHO-K1 cells transfected with receptor and promiscuous Gαq. Type of assay: cell-based. As to the method:
(§1) We tested receptor activation using the IP1 (inositol monophosphate) accumulation assay that measures IP1 generated in the Gαq pathway (see STAR Methods).
(§2) CHO-K1 cells were cultured in F-12K medium (Gibco, 21127–022) with 10% fetal bovine serum at 37°C in 5% CO2. Before transfection, cells were grown in 35 mm diameter tissue culture-treated dishes to 85% confluence. For transfection, 1.5 μg apCCKR plasmids or control plasmids (in pcDNA3.1(+) vector) and 1.5 μg promiscuous Gαq-family protein (in pcDNA3.1(+) vector) were mixed with 200 μL Opti-MEM (Gibco, 11058021), and 8 μL Turbofect (Thermo Fisher Scientific, R0531). This promiscuous Gαq protein contains substitutions to increase promiscuity,[148] and could bind to most GPCRs, ensuring an IP1 response when a potential ligand binds to its specific GPCR, irrespective of the GPCR’s normal association with any specific Gα proteins. The DNA mixture was incubated at room temperature for 15 min and then added dropwise to the cells in F-12K medium with 10% FBS (no antibiotics), followed by incubation at 37°C in 5% CO2 overnight. The next day, cells were detached using trypsin and reseeded in white 96-well half-area tissue culture-treated plates (Corning, 3688) at a density of 20,000 cells per well in F-12K and 10% FBS, and incubated at 37°C in 5% CO2 overnight. Activation of putative apCCK or related receptor was detected by monitoring IP1 accumulation using IPOne Detection Kit (Cisbio, 62IPAPEB), as previously described.[64],[65],[141],[149],[150]
(§3) Dose-response curves and bar graphs for experimental data were plotted using Prism software (GraphPad version 8). Data are presented as mean ± SEM of at least three independent experiments, except that LogEC50 values reported in the main text are the mean ± standard deviation (SD) from at least three independent experiments. Statistical tests were performed using Prism software. They included Student’s t-test, one-way or two-way ANOVA, as appropriate. […] Electrophysiological recordings were digitized online using AxoScope software version 10.7 (Molecular Devices, LLC, Sunnyvale, CA) and were plotted by CorelDraw version 2018 (Corel Corp., Ottawa, Canada).

A further assay concerns the target T2, apCCKR1 (Aplysia californica, UniProt A0ABM1AF30).
T2 sequence (A0ABM1AF30 1-261): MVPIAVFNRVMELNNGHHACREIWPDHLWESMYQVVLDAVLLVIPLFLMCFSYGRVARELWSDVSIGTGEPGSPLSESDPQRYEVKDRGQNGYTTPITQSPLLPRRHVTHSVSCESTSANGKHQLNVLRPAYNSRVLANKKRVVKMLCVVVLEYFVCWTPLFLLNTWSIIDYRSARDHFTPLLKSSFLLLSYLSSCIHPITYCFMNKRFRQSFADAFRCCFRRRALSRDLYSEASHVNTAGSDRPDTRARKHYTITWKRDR
Description: IP1 accumulation assay, apCCKR1 in CHO-K1 cells. Type of assay: cell-based. The settings on record: CHO-K1 cells transfected with receptor and promiscuous Gαq. As to the method:
as §1, §2, §3

[1] abbreviates: log[EC50] with negative sign, mean ± SD, at least three independent experiments, SD, read-out: apCCKR2: log[EC50] (converted).
Where [2] appears, read: log[EC50] with negative sign, mean ± SD, at least three independent experiments, SD, read-out: apCCKR1: log[EC50] (converted).
Setting [3] is: average of at least three independent experiments, read-out: apCCKR2: EC50.
Setting [4] is: average of at least three independent experiments, read-out: apCCKR1: EC50.

Read-outs that look alike come from different tables or passages of the source. Non-standard residues stand in square brackets, D forms with d. Residues, ends and D or L forms follow the SMILES beside them. sY = N[C@@H](Cc1ccc(OS(=O)(=O)O)cc1)C(=O)O A value given as a limit tells only on which side of the number the result lay.

As to `CC[C@H](C)[C@H](NC(=O)CNC(=O)[C@H](Cc1ccc(OS(=O)(=O)O)cc1)NC(=O)[C@H](CC(=O)O)NC(=O)CNC(=O)[C@H](Cc1ccc(OS(=O)(=O)O)cc1)NC(=O)[C@@H](N)CO)C(=O)NCC(=O)NCC(=O)NCC(=O)N[C@@H](CCCNC(=N)N)C(=O)N[C@@H](Cc1ccccc1)C(N)=O` [[sY2, sY5]-apCCK2] (H-S[sY]GD[sY]GIGGGRF-NH2), the figures for the EC50 on apCCKR2 (setting [1]) and at apCCKR1 (setting [2]) were 355 nM and 331 nM, respectively.
Consider `CC[C@H](C)[C@H](NC(=O)CNC(=O)[C@H](Cc1ccc(O)cc1)NC(=O)[C@H](CC(=O)O)NC(=O)CNC(=O)[C@H](Cc1ccc(OS(=O)(=O)O)cc1)NC(=O)[C@@H](N)CO)C(=O)NCC(=O)NCC(=O)NCC(=O)N[C@@H](CCCNC(=N)N)C(=O)N[C@@H](Cc1ccccc1)C(N)=O` [[sY2]-apCCK2] (H-S[sY]GDYGIGGGRF-NH2), for which the EC50 at apCCKR2 (setting [3]) is 1400 nM; on apCCKR2 (setting [1]), 1100 nM; on apCCKR1 (setting [4]) it was > 10000 nM.
Take `CC[C@H](C)[C@H](NC(=O)CNC(=O)[C@H](Cc1ccc(OS(=O)(=O)O)cc1)NC(=O)[C@H](CC(=O)O)NC(=O)CNC(=O)[C@H](Cc1ccc(O)cc1)NC(=O)[C@@H](N)CO)C(=O)NCC(=O)NCC(=O)NCC(=O)N[C@@H](CCCNC(=N)N)C(=O)N[C@@H](Cc1ccccc1)C(N)=O` [[sY5]-apCCK2] (H-SYGD[sY]GIGGGRF-NH2): the EC50 at apCCKR2 (setting [3]) is 49 nM; at apCCKR2 (setting [1]) it was 38.9 nM; at apCCKR1 (setting [2]), 851 nM.
For the compound H-SYGDYGIGGGRF-NH2 [apCCK2], the EC50 at apCCKR2 (setting [3]) and on apCCKR1 (setting [4]) was > 10000 nM in each case.

A word on the EC50: it is the concentration that produces a half-maximal response.
